Reference: the supplement of paper PMC10307832

Columns and labels:
Test in all cases: relative viability (nuclei count vs DMSO), 5 days (fraction); higher = more cells survive
Carfilzomib = compound: CC(C)C[C@H](NC(=O)[C@H](CCc1ccccc1)NC(=O)CN1CCOCC1)C(=O)N[C@@H](Cc1ccccc1)C(=O)N[C@@H](CC(C)C)C(=O)[C@@]1(C)CO1 [Carfilzomib]
Procedure, shortened: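 Viability is treated-well nuclei as a fraction of vehicle-well nuclei, reported as the median across plates. Before counting, lung cancer cell lines were kept overnight at 37 °C in 1536-well plates, pinned with five √10-spaced library-drug doses on vehicle-anchored plates, and left 5 days without medium change, then fixed, permeabilised and Hoechst-stained in one step, imaged at 4× and counted by MetaXpress. A plate passed only if control CV was below 25% and at least one doubling occurred.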

Carfilzomib + Navitoclax = compound: CC(C)C[C@H](NC(=O)[C@H](CCc1ccccc1)NC(=O)CN1CCOCC1)C(=O)N[C@@H](Cc1ccccc1)C(=O)N[C@@H](CC(C)C)C(=O)[C@@]1(C)CO1 [Carfilzomib] + CC1(C)CCC(c2ccc(Cl)cc2)=C(CN2CCN(c3ccc(C(=O)NS(=O)(=O)c4ccc(N[C@H](CCN5CCOCC5)CSc5ccccc5)c(S(=O)(=O)C(F)(F)F)c4)cc3)CC2)C1 [Navitoclax] (partner 0.5 µM)
Procedure, shortened: (§1)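 For relative viability, nuclei counts in treated wells were divided by those in vehicle wells. Lung cancer cell lines had been pin-tool dosed in 1536-well plates the day after seeding and cultured for 5 days, then fixed and stained in one step (final 0.05% Triton X-100, 1% formaldehyde, 1 ug/ml Hoechst) and imaged at 4×. Doses were one drug alone or a fixed anchor-drug dose plus five library-drug doses (not always all listed) in √10 steps, and values are duplicate-plate medians.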

Carfilzomib + Phenformin = compound: CC(C)C[C@H](NC(=O)[C@H](CCc1ccccc1)NC(=O)CN1CCOCC1)C(=O)N[C@@H](Cc1ccccc1)C(=O)N[C@@H](CC(C)C)C(=O)[C@@]1(C)CO1 [Carfilzomib] + N=C(N)NC(=N)NCCc1ccccc1 [Phenformin] (partner 250 µM)
Procedure, shortened: as §1

Crizotinib + OSI-027 = compound: C[C@@H](Oc1cc(-c2cnn(C3CCNCC3)c2)cnc1N)c1c(Cl)ccc(F)c1Cl [Crizotinib] + COc1cccc2cc(-c3nc([C@H]4CC[C@H](C(=O)O)CC4)n4ncnc(N)c34)[nH]c12 [OSI-027] (partner 0.5 µM)
Procedure, shortened: as §1

Crizotinib + AZD7762 = compound: C[C@@H](Oc1cc(-c2cnn(C3CCNCC3)c2)cnc1N)c1c(Cl)ccc(F)c1Cl [Crizotinib] + NC(=O)Nc1cc(-c2cccc(F)c2)sc1C(=O)N[C@H]1CCCNC1 [AZD7762] (partner 0.2 µM)
Procedure, shortened: as §1

NCI-H1793 was tested, and the relative viability (Carfilzomib; 0.003162 µM) was 1.03, the relative viability (Carfilzomib; 0.01 µM) was 0.827 and the relative viability (Carfilzomib; 0.03162 µM) was 0.9. The relative viability (Carfilzomib; 0.1 µM) was 0.165, the relative viability (Carfilzomib + Navitoclax; first compound 0.003162 µM) was 0.497 and the relative viability (Carfilzomib + Navitoclax; first compound 0.01 µM) was 0.52. It also gave a relative viability (Carfilzomib + Navitoclax; first compound 0.03162 µM) of 0.462, a relative viability (Carfilzomib + Navitoclax; first compound 0.1 µM) of 0.195 and a relative viability (Carfilzomib + Phenformin; first compound 0.003162 µM) of 0.404. For the same cell line, the relative viability (Carfilzomib + Phenformin; first compound 0.01 µM) was 0.296, the relative viability (Carfilzomib + Phenformin; first compound 0.03162 µM) was 0.407 and the relative viability (Carfilzomib + Phenformin; first compound 0.1 µM) was 0.261. For the same cell line, the relative viability (Crizotinib + OSI-027; first compound 0.03162 µM) was 0.256, the relative viability (Crizotinib + OSI-027; first compound 0.1 µM) was 0.278 and the relative viability (Crizotinib + OSI-027; first compound 1 µM) was 0.266. For the same cell line, the relative viability (Crizotinib + AZD7762; first compound 0.03162 µM) was 0.435, the relative viability (Crizotinib + AZD7762; first compound 0.1 µM) was 0.41 and the relative viability (Crizotinib + AZD7762; first compound 1 µM) was 0.621.
